The text below walks through data of article PMC467095 (Journal of Enzyme Inhibition and Medicinal Chemistry, 2024).

For experiment [1], the system named is STZ-induced diabetes in mice. Put plainly: Oxidative stress markers. The conditions noted are these: plasma, two weeks of treatment, mean of 6 mice ± SEM. The class given is in vivo.
The test system of experiment [2] is STZ-induced diabetes in mice. In words: Kidney function parameters. As to conditions: two weeks of treatment, mean of 6 mice ± SEM; for Urea: plasma. The class given is in vivo.
Experiment [3] has as its system STZ-induced diabetes in mice. Put plainly: Plasma insulin. The class given is in vivo. As to conditions: two weeks of treatment, mean of 6 mice ± SEM.
The subject of experiment [4] is STZ-induced diabetes in mice. In words: Blood glucose in STZ-induced diabetes in mice. The class given is in vivo. The conditions noted are these: p < 0.05.
Experiment [5] deals with STZ-induced diabetes in mice. Put plainly: Liver function markers. The class given is in vivo. The conditions noted are these: plasma, two weeks of treatment, mean of 6 mice ± SEM.
A further experiment concerns the target α-glucosidase. Put plainly: α-Glucosidase inhibition assay. The class given is biochemical. As to conditions: for IC50: read-out: α-Glucosidase IC50, Table 3, DF = 100.

On to `Cc1ccc(S(=O)(=O)NC(=O)NN2CC3CCCC3C2)cc1` (centres unmarked) [Gliclazide], for which the GSH in experiment [1] is on record as 3.15 ± 0.05^a^,^b; in experiment [1] (listed as gliclazide) it was “significant elevation”. Also, the MDA is given as 22 ± 0.2^a^,^b in experiment [1] and “significant reduction” in experiment [1] (listed as gliclazide). The Creat in experiment [2] (plasma creatinine) was 3.3 ± 0.1^a^,^b. Also, the Urea is given as 57.5 ± 0.3^a^,^b in experiment [2] and “significant lowering” in experiment [2] (listed as gliclazide). The Insulin in experiment [3] is recorded as 14.52 ± 0.4^a^,^b ng/mL; in experiment [3] (listed as gliclazide), “rose”. In addition, the “Blood sugar levels compared to the STZ-only treatment group” value in experiment [4] is on record as “declined significantly”. The ALT is given as 53.7 ± 0.7^a^,^b in experiment [5] and “significant reduction” in experiment [5] (listed as gliclazide). The AST in experiment [5] is recorded as 39.8 ± 0.3^a^,^b; in experiment [5] (listed as gliclazide), “significant reduction”.
On to `CC(=O)c1sc(NN=C2c3ccccc3-c3nc4cc(F)ccc4nc32)nc1C` [Compound 8, 1–(2-(2–(7-fluoro-11H-indeno[1,2-b]quinoxalin-11-ylidene)-hydrazineyl)-4-methyl-thiazol-5-yl)-ethan-1-one], for which, in experiment [3], the Insulin is listed as 10.5 ± 0.3^a^,^b ng/mL. Moreover, the half-maximal inhibitory concentration (IC50) (commonly the concentration needed to halve the response being measured) on α-glucosidase was found to be 0.982 µM.
With `CCC1SC(NN=C2c3ccccc3-c3nc4cc(F)ccc4nc32)=NC1=O` (centres unmarked) [Compound 16], the Insulin in experiment [3] was 9.34 ± 0.3^a^,^b ng/mL. The IC50 at α-glucosidase stood at 7.03 µM. For the same compound, on α-glucosidase (± SD), the “α-glucosidase inhibition IC50” value is on record as “good activity”.
As to `CCOC(=O)c1sc(N=C2c3ccccc3-c3nc4cc(F)ccc4nc32)nc1C` [Compound 6], the Insulin in experiment [3] was 12.28 ± 0.3^a^,^b ng/mL. Further, on α-glucosidase, the half-inhibitory concentration (IC50) was found to be 3 µM.
Consider `O=C1CSC(N=C2c3ccccc3-c3nc4cc(F)ccc4nc32)=N1` [Compound 4], for which the Insulin in experiment [3] is listed as 11.44 ± 0.2^a^,^b ng/mL. Besides, the IC50 on α-glucosidase was 10.2 µM.
